Source: publication PMC11440508, “Dually Labeled Neurotensin NTS1R Ligands for Probing Radiochemical and Fluorescence-Based Binding Assays” (Journal of Medicinal Chemistry, 2024)

Target: NTS1R (Homo sapiens, UniProt P30989)
Test: Radiochemical association and dissociation of [^3H]13 at membranes of CHO-hNTS1R cells
Format: binding
Conditions: GppNHp
Description: These experiments were performed in 96-well plates using the same procedure as for radiochemical binding experiments with intact suspended cells, but using cell membranes instead of whole cells. Binding of [^3H]13 to the NTS1R was saturable (Figure 6A). […] To note, in addition to GppNHp, saponin (100 μg/mL) was added to the samples to improve ligand permeabilization into vesicles that are likely to occur in membrane preparations. The association curve of [^3H]13 obtained from experiments with cell membranes (Figure 6B) was considerably different compared to the association curve observed for intact suspended cells (cf. Figure 4C). The biphasic character almost disappeared and with a kon value of 0.13 ± 0.05 nM^–1 min^–1 (calculated value ± propagated error) the association was slower compared to the initial phase found for experiments with intact cells (kon = 0.81 nM^–1 min^–1, cf. Table 3). […]
CHO-hNTS1R cells were grown on 175 cm^2 cell culture dishes (ref 83.3903, Sarstedt) to ca. 90% confluency. […] The protein concentration was determined according to the Bradford method[59] in transparent 96-well plates (Greiner Cellstar 655180, Greiner Bio-One, Frickenhausen, Germany) using bovine serum albumin as standard. […]

Sequence of NTS1R (P30989 whole entry): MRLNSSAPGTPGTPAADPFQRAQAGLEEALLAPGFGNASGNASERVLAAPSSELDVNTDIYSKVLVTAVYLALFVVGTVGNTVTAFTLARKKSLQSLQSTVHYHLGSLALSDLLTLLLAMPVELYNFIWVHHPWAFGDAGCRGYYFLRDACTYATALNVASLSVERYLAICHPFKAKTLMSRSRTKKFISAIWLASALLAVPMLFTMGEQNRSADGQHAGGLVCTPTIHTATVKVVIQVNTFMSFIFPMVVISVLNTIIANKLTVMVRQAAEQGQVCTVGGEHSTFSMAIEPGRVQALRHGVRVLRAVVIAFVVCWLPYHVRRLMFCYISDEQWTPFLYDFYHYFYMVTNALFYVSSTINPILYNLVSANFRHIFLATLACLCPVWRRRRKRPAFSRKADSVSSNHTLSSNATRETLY

Question: How did the koff (23 °C) turn out when `CCC(=O)NCCCCNC(=O)NC(=N)NCCC[C@H](NC(=O)[C@@H]1CCCN1C(=O)[C@@H](NC(=O)CCc1cn(CCCNC(=O)c2ccc(-c3c4ccc(=[N+](C)C)cc-4oc4cc(N(C)C)ccc34)c(C(=O)[O-])c2)nn1)C1CCNCC1)C(=O)N[C@@H](CCCNC(=N)N)C(=O)N1CCC[C@H]1C(=O)N[C@@H](Cc1ccc(O)cc1)C(=O)N[C@H](C(=O)N[C@@H](CC(C)C)C(=O)O)[C@@H](C)CC` [[^3H]13] was run?
Answer: 0.00617 s⁻¹

Question: What about the kon (calculated value ± propagated error) of the same compound?
Answer: 2.17e+06 M⁻¹ s⁻¹
